# Columns and labels:
# [1] = Ultraviolet absorption (450 nm) over time of buffered lysine solutions with or without malto-oligosaccharide, warmed to 75° C.; assay type: physicochemical
# Method: A pH 6 buffered lysine solution was prepared by dissolving L-lysine (0.5 g) in phosphate buffer and adjusting the pH with hydrochloric acid. […] An aqueous solution of a reduced malto-oligosaccharide was prepared by dissolving a reduced malto-oligosaccharide mixture in water to produce a solution having a final solids content of 50% by weight. The buffered lysine solution (2 mL) was dissolved in the aqueous reduced malto-oligosaccharide solution (hydrogenated MALTRIN® M180) (3 mL) to produce a solution.
# [2] = tested on: Fleischmann's baker's yeast; experiment: Yeast viability before and after freeze drying (cell counting after plating on YM agar); assay type: cell-based; details: yeast viability of freeze dried sample divided by that of control sample
# Method: Yeast viability was determined by cell counting after plating on yeast extract, malt extract (YM) agar in accordance with the method described in FDA Bacteriological Analytical Manual, 6th Ed., Ch. 4, pp. 401-402 (1984). Yeast viability is expressed as the number of cells per gram of dry solids (gm.ds). The percent yeast survival was determined by dividing the yeast viability of the freeze dried sample by the yeast viability of the control sample.
# For comparison, a mixture of yeast cells and a malto-oligosaccharide was freeze dried, as follows. A 20% aqueous solution of MALTRIN® M180 (M180) was prepared by dissolving 85.5 g (6.4% moisture) of M180 in […] of deionized water. A suspension of yeast cells was prepared by dissolving 5.78 g of Fleischmann's baker's yeast in 94.3 g of sterile phosphate buffer. The yeast suspension was stirred for 30 minutes to obtain a relatively homogenous yeast mixture. A 10.0 ml aliquot of the yeast suspension was pipetted into the 20% aqueous M180 solution. A control sample was removed to determine yeast viability by plating on YM agar (sample 9A). […] After freeze drying, sample 9B was removed from the pans and analyzed for yeast viability. […]
# A mixture of yeast cells and a reduced malto-oligosaccharide was freeze dried, as follows. […] After freeze drying, samples 9D-1 and 9D-2 were removed from the pans and analyzed for yeast viability. […]
# [3] = tested on: Enzeco® Fungal Lactase Concentrate; experiment: Lactase enzyme activity before and after freeze drying (glucose released from a buffered lactose solution); assay type: biochemical
# Method: The enzyme activity was determined in accordance with Mazzobre et al., Biopolymer Science: Food and Non Food Applications, Montpellier (France) Sep. 28-30, 1998 Ed. INRA, Paris, 1999 (Les Colloques, no 91). The procedure is based on measuring the amount of glucose released from a buffered lactose solution. The measurement was done using a YSI 2700 glucose analyzer.
# For comparison, a mixture containing lactase and a malto-oligosaccharide was prepared, as follows. A 20% aqueous solution of MALTRIN® M180 (M180) was prepared by dissolving 85.5 g (6.4% moisture) of M180 in 313.5 g of deionized water. Enzeco® Fungal Lactase Concentrate, 1.0 g was added to the slurry and stirred for one hour. A 20.0 ml aliquot of the mixture was removed as a control (sample 8A). The remaining sample was poured into two separate freeze drying pans and each was freeze dried according to the temperature profile in Table 3. The temperature profile shown in column 8B of Table 3 represents the temperature profile for only one of the two samples in the freeze drying pans. The freeze dryer was a Virtis Genesis 25XL unit. Final vacuum of the system was 11.8 mtorr. After freeze drying, the material was removed from the pans and evaluated for enzyme activity. The enzyme activity in column 8B of Table 4 represents an average of the enzyme activities for each of the two samples in the freeze drying pans.
# A mixture containing lactase and a reduced malto-oligosaccharide was freeze dried as follows. A 20% aqueous solution of reduced malto-oligosaccharide with a carbohydrate profile that matches MALTRIN® M180 (H-M180) was prepared by dissolving 83.4 g (4.1% moisture) of the reduced malto-oligosaccharide in 315.6 g of deionized water. Enzeco® Fungal Lactase Concentrate (1.0 g) was added to the slurry and stirred for one hour. A 20.0 ml aliquot of the mixture was removed as a control (sample 8C). The remaining sample was poured into two separate freeze drying pans and freeze dried according to the temperature profile in Table 3 (samples 8D-1 and 8D-2). The freeze dryer was a Virtis Genesis 25XL unit. Final vacuum of the system was 11.8 mtorr. After freeze drying, the material was removed from the pans and evaluated for enzyme activity as described in the previous example.
# For comparison, a mixture containing lactase and trehalose was freeze dried, as follows. A 20% aqueous solution of trehalose was prepared by dissolving 88.9 g (9.1% moisture) of trehalose in 311.0 g of deionized water. Enzeco® Fungal Lactase Concentrate, 1.0 g was added to the slurry and stirred for-one hour. A 20.0 ml aliquot of the mixture was removed as a control (sample 8E). The remaining sample was poured into two separate freeze drying pans and each was freeze dried according to the temperature profile in Table 3. The temperature profile shown in column 8F of Table 3 represents the temperature profile of only one of the two samples in the freeze drying pans. The freeze dryer was a Virtis Genesis 25XL unit. Final vacuum of the system was 11.8 mtorr. After freeze drying, the material was removed from the pans and evaluated for enzyme activity as described in the previous example. The enzyme activity in column 8F of Table 4 represents an average of the enzyme activities for each of the two samples in the freeze drying pans.
# The enzymatic activities shown in Table 4 are expressed as the percentage of glucose liberated in the enzyme assay as measured by the amount of glucose liberated divided by the maximum amount of glucose that can be theoretically liberated.
smiles,measurement,setting,value
"NCCCC[C@H](N)C(=O)O [Control (lysine only), L-lysine]",UV absorption (450 nm),[1]; time 0 min,0.044
same,UV absorption (450 nm),[1]; time 20 min,0.043
same,UV absorption (450 nm),[1]; time 35 min,0.044
same,UV absorption (450 nm),[1]; time 50 min,0.046
same,UV absorption (450 nm),[1]; time 65 min,0.047
same,UV absorption (450 nm),[1]; time 80 min,0.048
same,UV absorption (450 nm),[1]; time 100 min,0.050
same,UV absorption (450 nm),[1]; time 110 min,0.050
same,UV absorption (450 nm),[1]; time 125 min,0.051
same,UV absorption (450 nm),[1]; time 170 min,0.055
same,UV absorption (450 nm),[1]; time 185 min,0.057
same,UV absorption (450 nm),[1]; time 200 min,0.057
same,UV absorption (450 nm),[1]; time 215 min,0.059
same,UV absorption (450 nm),[1]; time 230 min,0.059
same,UV absorption (450 nm),[1]; time 245 min,0.058
same,UV absorption (450 nm),[1]; time 260 min,0.061
same,UV absorption (450 nm),[1]; time 305 min,0.061
same,UV absorption (450 nm),[1]; time 320 min,0.063
same,UV absorption (450 nm),[1]; time 335 min,0.063
same,UV absorption (450 nm),[1]; time 350 min,0.063
same,UV absorption (450 nm),[1]; time 365 min,0.064
same,UV absorption (450 nm),[1]; time 380 min,0.065
"OC[C@H]1O[C@H](O[C@H]2O[C@H](CO)[C@@H](O)[C@H](O)[C@H]2O)[C@H](O)[C@@H](O)[C@@H]1O [Trehalose, trehalose]",% Yeast Survival,[2],58.0 (trehalase) %
same,% activity (freeze dried sample divided by control sample not freeze dried),[3]; Avg. over assay times,86.6%
same,% activity (freeze dried sample divided by control sample not freeze dried),[3]; lactase assay time 0 h,0%
same,% activity (freeze dried sample divided by control sample not freeze dried),[3]; lactase assay time 0.05 h,72.4%
same,% activity (freeze dried sample divided by control sample not freeze dried),[3]; lactase assay time 0.5 h,90.0%
same,% activity (freeze dried sample divided by control sample not freeze dried),[3]; lactase assay time 1 h,90.7%
same,% activity (freeze dried sample divided by control sample not freeze dried),[3]; lactase assay time 2 h,93.2%

# — US6610672B2, “Compositions including reduced malto-oligosaccharide preserving agents, and methods for preserving a material” (Grain Processing Corporation, priority 1999, dated 2003)
